Assay results published in patent publication US7173049B2, “Fungicidal compositions” (Bayer Cropscience S.A., priority 2001, dated 2007).

Tested on: Plasmopara viticola
Experiment: Test against downy mildew of grapevine (preventive action)
Type: in vivo, Plasmopara viticola on grapevine plants (Chardonnay variety)
Settings: alone
Source text: In the compositions according to the invention, the compound (I)/compound (II) ratio is advantageously chosen so as to produce a synergistic effect. The term “synergistic effect” especially means the effect defined by S. R. Colby in an article entitled “Calcul des responses synergiques et antagonistes des combinaisons herbicides [Calculation of the synergistic and antagonist responses of herbicidal combinations]”, Weeds, (1967), 15, pages 20–22.
[formula] in which E represents the expected percentage of inhibition of the disease for the combination of the two fungicides at defined doses (for example equal to x and y, respectively), X is the percentage of inhibition observed for the disease by compound (I) at a defined dose (equal to x), Y is the percentage of inhibition observed for the disease by compound (II) at a defined dose (equal to y). When the percentage of inhibition observed for the combination is greater than E, there is a synergistic effect.
Test of a composition against downy mildew of grapevine (Plasmopara viticola; preventive action):
Grapevine plants (Chardonnay variety) are grown on sandy soil in plastic pots, with one plant per pot. The two-month-old plants (6 to 7 leaves developed) are sprayed with compound (I) and compound (II), either alone or as a mixture.
The fungicidal active materials, either alone or as a mixture, are applied at a rate of 500 liters/ha.
The compound (I)/compound (II) ratios studied are 1/10, 1/15 and 1/20.
Three days after the treatment, each plant is inoculated by spraying with an aqueous suspension of Plasmopara viticola spores obtained from contaminated leaves. The spore concentration is about 100 000 units per ml.
After contamination, the plants are incubated for two days at 18° C. under a saturated atmosphere, and then for 5 days at about 20° C. with a relative humidity of 90–100%.
Seven days after the contamination, the symptoms are evaluated in terms of extent of surface area on the underside of the leaves that are infected, relative to the untreated but contaminated plants.
The efficacy of the treatment is calculated using the Abbott formula below: […]
The concentrations of the fungicides alone or as a mixture giving 50%, 70% or 90% efficacy for each component, in the appropriate test, are determined on the basis of the model of the dose/response sigmoid curve and their corresponding confidence intervals. The results are analysed using the Tammes or Colby model.

Row | Compound | % Efficacy (70 mg/l) | % Efficacy (105 mg/l) | % Efficacy (140 mg/l) | % Efficacy (700 mg/l) | % Efficacy (1050 mg/l) | % Efficacy (1400 mg/l) | % Efficacy (100 mg/l) | % Efficacy (150 mg/l) | % Efficacy (200 mg/l) | % Efficacy (1000 mg/l) | % Efficacy (1500 mg/l) | % Efficacy (2000 mg/l) | % Efficacy (10 mg/l, preventive, 7 days after contamination)
1 | OP(O)O [Compound (IIa), phosphorous acid] | 0% | 0% | 0% | 4% | 50% | 52% | – | – | – | – | – | – | –
2 | CCO[PH](=O)O.[Al] [Compound (IIb), aluminium ethyl hydrogen phosphonate, reference compound] | – | – | – | – | – | – | 0% | 0% | 0% | 46% | 60% | 81% | –
3 | O=C(NCc1ncc(C(F)(F)F)cc1Cl)c1c(Cl)cccc1Cl [Compound (Ia), 2,6-dichloro-N-{[3-chloro-5-(tri-fluoromethyl)-2-pyridinyl]methyl}benzamide] | – | – | – | – | – | – | 100% | – | – | – | – | – | 77%
